Assay results reported in patent US20050222209A1, “Methods and compositions for the treatment, prevention or management of dysfunctional sleep and dysfunctional sleep associated with disease” (priority 2004, published 2005).

Key:
subjects = experiment: Pittsburgh Sleep Quality Index study (PSQI, daily sleep diary); format: in vivo, human; conditions: 10 mg/day orally, 12 week study, twelve subjects
Experimental: Twelve subjects were treated with 10 mg/day of 3-(4-amino-1-oxo-1,3-dihydro-isoindol-2-yl)-piperidine-2,6-dione orally for 12 weeks. Subjects were seen every 2 weeks until study completion. Subjects were asked to keep a daily sleep diary asking how much interference with sleep (0-10 scale) was experienced. Patients were also asked to complete the Pittsburgh Sleep Quality Inventory (PSQI) at the start of the treatment and ever 4 weeks thereafter, Buysse, DJ et al., Journal of Psychiatric Research, 28 (2), 193-213, 1989.

[1] = cited from earlier work; for hygroscopicity: crystalline polymorphic form; for interconversion on heating (desolvation experiments): Form E: about 125° C. for about five minutes, Form B: 175° C. for about five minutes; for interconversion of polymorphic form: solvent system or relative humidity as stated

Structure (SMILES) | hygroscopicity [1] | interconversion on heating (desolvation experiments) [1] | interconversion of polymorphic form [1] | also measured
Nc1cccc2c1CN(C1CCC(=O)NC1=O)C2=O (stereo not shown) [3-(4-amino-1-oxo-1,3-dihydro-isoindol-2-yl)-piperidine-2,6-dione] | – | – | – | need for sleep medications (subjects): significantly improved; overall sleep quality (subjects): significantly improved; presence of daytime sleepiness (subjects): significantly improved
Nc1cccc2c1CN(C1CCC(=O)NC1=O)C2=O (stereo not shown) [Form A, 3-(4-amino-1-oxo-1,3 dihydro-isoindol-2-yl)-piperidene-2,6-dione] | weakly or not hygroscopic | – | – | relative stability of polymorph ([1]; Form A: among anhydrous polymorphs, Form E: in aqueous solvent systems): most thermodynamically stable anhydrous polymorph
Nc1cccc2c1CN(C1CCC(=O)NC1=O)C2=O (stereo not shown) [Form B, 3-(4-amino-1-oxo-1,3 dihydro-isoindol-2-yl)-piperidene-2,6-dione] | – | can convert to Form F | converts to Form E in aqueous solvent systems | –
Nc1cccc2c1CN(C1CCC(=O)NC1=O)C2=O (stereo not shown) [Form C, 3-(4-amino-1-oxo-1,3 dihydro-isoindol-2-yl)-piperidene-2,6-dione] | not hygroscopic below about 85% RH | – | can convert to Form B at higher relative humidities | –
Nc1cccc2c1CN(C1CCC(=O)NC1=O)C2=O (stereo not shown) [Form D, 3-(4-amino-1-oxo-1,3 dihydro-isoindol-2-yl)-piperidene-2,6-dione] | either weakly or not hygroscopic | – | will typically convert to Form B when stressed at higher relative humidities | –
Nc1cccc2c1CN(C1CCC(=O)NC1=O)C2=O (stereo not shown) [Form E, 3-(4-amino-1-oxo-1,3 dihydro-isoindol-2-yl)-piperidene-2,6-dione] | – | can convert to Form B | can convert to Form C in an acetone solvent system and to Form G in a THF solvent system | –
